Among the data in US8604016B2, “Heterocyclic inhibitors of glutaminase” (Calithera Biosciences Inc., priority 2011, dated 2013) are IC50 values, retold here.

This test has as its target recombinant form of Glutaminase 1 (GAC) (Homo sapiens, UniProt O94925). The test can be described thus: Recombinant Enzyme Assay (GAC coupled to GDH, NADH absorbance, no preincubation). In kind it is biochemical. To be noted: no preincubation; read-out: GAC Delta N2 IC50 no preinc. The method, then:
Enzymatic reaction was started with the addition of 50 μL of enzyme solution (50 mM Tris-HCl pH 8.0, 0.2 mM EDTA, 150 mM K2HPO4, 0.1 mg/ml BSA, 1 mM DTT, 10 ppm antifoam, 4 units/ml GDH, 4 mM adenosine diphosphate, and 4 nM GAC) and read in a Molecular Devices M5 plate reader at 20° C. The plate reader was configured to read absorbance (λ=340 nm) in kinetic mode for 15 minutes. Data was recorded as milli-absorbance units per minute and slopes were compared to a control compound and a DMSO-only control on the same plate. Compounds with slopes less than the DMSO control were considered inhibitors and plate variability was assessed using the control compound.

With `CC1(C)OC(=O)[C@@H](CC(=O)Nc2nnc(CCSCCc3nnc(NC(=O)C[C@H]4OC(C)(C)OC4=O)s3)s2)O1` [Compound 104], the IC50 is more than 20 µM.
The value for `NCC(C(=O)Nc1nnc(CCCCc2nnc(NC(=O)C(CN)c3ccccc3)s2)s1)c1ccccc1` (stereo not drawn) [Compound 231] was 7.4 µM; that for `O=C(CN1C(=O)OC[C@H]1c1ccccc1)Nc1nnc(CCSCCc2nnc(NC(=O)CN3C(=O)OC[C@H]3c3ccccc3)s2)s1` [Compound 243] was 2.7 µM; that for `COCOCCOC(C(=O)Nc1nnc(CCCCc2nnc(NC(=O)C(OCCOCOC)c3ccccc3)s2)s1)c1ccccc1` (stereo not drawn) [Compound 251] was 2.8 µM.
The value for `O=C(CC1CCCCC1)Nc1nnc(CCSCCc2nnc(NC(=O)CC3CCCCC3)s2)s1` [Compound 48] was more than 50 µM; that for `CCC(C)C(=O)Nc1nnc(CCCCc2nnc(NC(=O)C(C)CC)s2)s1` (stereo not drawn) [Compound 107] was 4.3 µM; that for `Nc1ccc(CC(=O)Nc2nnc(CCSCCc3nnc(NC(=O)Cc4ccc(N)cc4)s3)s2)cc1` [Compound 195] was 0.3 µM.
As for `O=C(Nc1nnc(CCSCCc2nnc(NC(=O)C3CCCC3)s2)s1)C1CCCC1` [Compound 40], the IC50 amounted to 3.7 µM.
The value for `O=C(OCC(C(=O)Nc1nnc(CCCCc2nnc(NC(=O)C(COC(=O)C3CCNCC3)c3ccccc3)s2)s1)c1ccccc1)C1CCNCC1` (stereo not drawn) [Compound 302] was 7 µM; that for `O=C(Cc1ccccc1F)Nc1nnc(CCSCCc2nnc(NC(=O)Cc3ccccc3F)s2)s1` [Compound 294] was 0.2 µM.
Consider `COc1ccccc1-c1cccc(CC(=O)Nc2nnc(CCCCc3nnc(NC(=O)Cc4cccc(-c5ccccc5OC)c4)s3)s2)c1` [Compound 326], for which the IC50 was more than 20 µM.
In the case of `O=C(Cc1coc2ccccc12)Nc1nnc(CCCCc2nnc(NC(=O)Cc3coc4ccccc34)s2)s1` [Compound 222], the IC50 was more than 20 µM.
The value for `CC[C@](O)(C(=O)Nc1nnc(CCCCc2nnc(NC(=O)[C@@](O)(CC)c3ccccc3)s2)s1)c1ccccc1` [Compound 143] was 0.57 µM.
For `COc1ccccc1CC(=O)Nc1nnc(CCSCc2nnc(NC(=O)Cc3ccccc3OC)s2)s1` [Compound 249], the IC50 is 0.12 µM.
The value for `C[C@H](N)C(=O)Nc1nnc(CCSCCc2nnc(NC(=O)[C@H](C)N)s2)s1` [Compound 74] was more than 50 µM; that for `O=C(Cc1cccc(-c2cccc(F)c2)c1)Nc1nnc(CCCCc2nnc(NC(=O)Cc3cccc(-c4cccc(F)c4)c3)s2)s1` [Compound 331] was more than 20 µM.
As to `CCC(C)C(=O)Nc1nnc(CCSCCc2nnc(NC(=O)C(C)CC)s2)s1` (stereo not drawn) [Compound 105], the IC50 was 9.9 µM.
Consider `CC(C)[C@H](N)C(=O)Nc1nnc(CCSCCc2nnc(NC(=O)Cc3ccccc3)s2)s1` [Compound 32], for which the IC50 turned out to be 7 µM.
The value for `CC(C)(C)OC(=O)NC(C(=O)Nc1nnc(CCSCCc2nnc(NC(=O)C(NC(=O)OC(C)(C)C)C3CCCC3)s2)s1)C1CCCC1` (stereo not drawn) [Compound 110] was more than 20 µM; that for `O=C(Cc1cccc(F)c1)Nc1nnc(CCSCCc2nnc(NC(=O)Cc3cccc(F)c3)s2)s1` [Compound 102] was 0.24 µM; that for `O=C(Cc1cccs1)Nc1nnc(CCSCCc2nnc(NC(=O)Cc3cccs3)s2)s1` [Compound 116] was 0.24 µM.
The value for `O=C(Nc1nnc(CCCCc2nnc(NC(=O)C(O)c3cccc(F)c3F)s2)s1)C(O)c1cccc(F)c1F` (stereo not drawn) [Compound 211] was 1.2 µM; that for `O=C(Cc1ccccc1)Nc1nnc(CCCCc2nnc(NC(=O)[C@H]3CCCC[C@@H]3C(=O)c3ccccc3)s2)s1` [Compound 290] was 0.8 µM.
Take `O=C(Nc1nnc(CCSCCc2nnc(NC(=O)C3CCCO3)s2)s1)C1CCCO1` (stereo not drawn) [Compound 39]: the IC50 was found to be 26 µM.
The value for `CC(=O)Nc1nnc(CCSCCc2nnc(N)s2)s1` [Compound 357] was more than 20 µM; that for `O=C(Nc1nnc(CCCCc2nnc(NC(=O)[C@@H](O)Cc3ccccc3)s2)s1)[C@@H](O)Cc1ccccc1` [Compound 146] was 0.43 µM.
`O=C(Cc1ccccc1)Nc1nnc(CCCCc2nnc(NC(=O)Cc3ccccc3CO)s2)s1` [Compound 333]: the IC50 is 0.1 µM.
For `O=C(Nc1nnc(CCCCc2nnc(NC(=O)C3CCCO3)s2)s1)C1CCCO1` (stereo not drawn) [Compound 54], the IC50 turned out to be 9.2 µM.
The value for `O=C(Cc1cccc(-n2cccn2)c1)Nc1nnc(CCCCc2nnc(NC(=O)Cc3cccc(-n4cccn4)c3)s2)s1` [Compound 285] was 0.19 µM; that for `O=C(Nc1nnc(CCCCc2nnc(NC(=O)C3(c4ccccc4)CC3)s2)s1)C1(c2ccccc2)CC1` [Compound 168] was 1.3 µM; that for `O=C(Cc1cccs1)Nc1nnc(CCSCc2nnc(NC(=O)Cc3cccs3)s2)s1` [Compound 237] was 0.2 µM.
As for `CCCCOC(=O)Nc1nnc(CCCCc2nnc(NC(=O)Cc3ccccc3)s2)s1` [Compound 388], the IC50 came out at 0.21 µM.
Take `CC(C)[C@H](N)C(=O)Nc1nnc(CCCCc2nnc(NC(=O)[C@@H](N)C(C)C)s2)s1` [Compound 73]: the IC50 is more than 50 µM.
The value for `O=C(Cc1cccc(F)c1)Nc1nnc(CCCCc2nnc(NC(=O)Cc3cccc(F)c3)s2)s1` [Compound 273] was 0.14 µM; that for `CC(C)(C)OC(=O)N1CCN(C(C(=O)Nc2nnc(CCSCCc3nnc(NC(=O)Cc4ccccc4)s3)s2)c2ccccc2)CC1` (stereo not drawn) [Compound 70] was 3.4 µM.
The value for `O=C(Nc1nnc(CCCc2nnc(NC(=O)C(O)Cc3ccccc3)s2)s1)C(O)Cc1ccccc1` (stereo not drawn) [Compound 170] was 7.4 µM; that for `O=C(Nc1nnc(CCCCc2nnc(NC(=O)C(OCCO)c3ccccc3)s2)s1)C(OCCO)c1ccccc1` (stereo not drawn) [Compound 252] was 1.2 µM; that for `CC(C)(C)OC(=O)N1CCCC(CC(=O)Nc2nnc(CCSCCc3nnc(NC(=O)CC4CCCN(C(=O)OC(C)(C)C)C4)s3)s2)C1` (stereo not drawn) [Compound 112] was 0.51 µM.
With `CC(=O)OCC(=O)Nc1nnc(CCSCCc2nnc(NC(=O)CO)s2)s1` [Compound 254], the IC50 is more than 20 µM.
Consider `CC(=O)Nc1nnc(CCSCCc2nnc(NC(=O)Cc3ccccc3)s2)s1` [Compound 25], for which the IC50 amounted to 1.2 µM.
Consider `O=C(Cc1csc2ccccc12)Nc1nnc(CCSCCc2nnc(NC(=O)Cc3csc4ccccc34)s2)s1` [Compound 212], for which the IC50 was more than 20 µM.
As for `N#Cc1ccc(CC(=O)Nc2nnc(CCSCCc3nnc(NC(=O)Cc4ccc(C#N)cc4)s3)s2)cc1` [Compound 216], the IC50 stood at 0.89 µM.
The value for `O=C(Cc1cc2ccccc2o1)Nc1nnc(CCCCc2nnc(NC(=O)Cc3cc4ccccc4o3)s2)s1` [Compound 194] was 10 µM; that for `O=CO[C@@H](C(=O)Nc1nnc(CCCCc2nnc(NC(=O)[C@H](OC=O)c3ccccc3)s2)s1)c1ccccc1` [Compound 68] was 4.9 µM.
The value for `C[C@@H](O)[C@H](N)C(=O)Nc1nnc(CCSCCc2nnc(NC(=O)[C@@H](N)[C@@H](C)O)s2)s1` [Compound 139] was more than 20 µM.
The value for `O=C(Cc1ccccc1)Nc1nnc(CCSCc2nnc(NC(=O)Cc3ccccn3)s2)s1` [Compound 373] was 0.17 µM.
As to `O=C(CC1CC1)Nc1nnc(CCSCCc2nnc(NC(=O)CC3CC3)s2)s1` [Compound 83], the IC50 came to 3.9 µM.
In the case of `O=C(CCc1ccccc1)Nc1nnc(CCSCCc2nnc(NC(=O)CCc3ccccc3)s2)s1` [Compound 75], the IC50 was more than 50 µM.
For the compound `O=C(Cc1ccc2ncccc2c1)Nc1nnc(CCCCc2nnc(NC(=O)Cc3ccc4ncccc4c3)s2)s1` [Compound 269], the IC50 was determined as 0.26 µM.
Consider `NC(C(=O)Nc1nnc(CCCCc2nnc(NC(=O)C(N)C3CCCC3)s2)s1)C1CCCC1` (stereo not drawn) [Compound 131], for which the IC50 stood at 19 µM.
The value for `O=C(Cc1ccccc1)Nc1nnc(CSCc2nnc(NC(=O)Cc3ccccc3)s2)s1` [Compound 145] was more than 20 µM; that for `CC(C)(C)OC(=O)N1CCCC(CC(=O)Nc2nnc(CCCCc3nnc(NC(=O)CC4CCCN(C(=O)OC(C)(C)C)C4)s3)s2)C1` (stereo not drawn) [Compound 115] was 0.62 µM.
The value for `O=C(Cc1cccnc1)Nc1nnc(CCCCc2nnc(NC(=O)Cc3cccnc3)s2)s1` [Compound 311] was 0.2 µM.
For `O=C(Cc1ccccc1)Nc1nnc(CCCCc2nnc(NC(=O)C(CO)c3ccccc3)s2)s1` (stereo not drawn) [Compound 316], the IC50 turned out to be 0.19 µM.
`O=C(CCN1CCOCC1)OC(C(=O)Nc1nnc(CCCCc2nnc(NC(=O)C(O)c3cccc(Cl)c3)s2)s1)c1cccc(Cl)c1` (stereo not drawn) [Compound 358]: the IC50 amounted to 1.4 µM.
With `NCCC(C(=O)Nc1nnc(CCSCCc2nnc(NC(=O)C(CN)c3ccccc3)s2)s1)c1ccccc1` (stereo not drawn) [Compound 214], the IC50 came out at 0.82 µM.
Take `C[C@H](NC(=O)OC(C)(C)C)C(=O)Nc1nnc(CCSCCc2nnc(NC(=O)[C@H](C)NC(=O)OC(C)(C)C)s2)s1` [Compound 49]: the IC50 stood at 36 µM.
The value for `COC(=O)C(CC(=O)Nc1nnc(CCCCc2nnc(NC(=O)CC(C(=O)O)c3ccccc3)s2)s1)c1ccccc1` (stereo not drawn) [Compound 178] was 1.5 µM; that for `O=C(Nc1nnc(CCCCc2nnc(NC(=O)C3Oc4ccccc4O3)s2)s1)C1Oc2ccccc2O1` [Compound 136] was 7 µM.
The value for `COc1ccc(C(O)C(=O)Nc2nnc(CCCCc3nnc(NC(=O)C(O)c4ccc(OC)cc4)s3)s2)cc1` (stereo not drawn) [Compound 320] was 0.4 µM; that for `CC1(C)OCC(C(=O)Nc2nnc(CCCCc3nnc(NC(=O)Cc4ccccc4)s3)s2)(c2ccccc2)O1` (stereo not drawn) [Compound 279] was 0.68 µM; that for `CC(C)[C@H](N)C(=O)OCC(C(=O)Nc1nnc(CCCCc2nnc(NC(=O)C(COC(=O)[C@@H](N)C(C)C)c3ccccc3)s2)s1)c1ccccc1` (stereo partly drawn) [Compound 291] was 1.5 µM.
`CN(C(=O)Cc1ccccc1)c1nnc(CCSCCc2nnc(N(C)C(=O)Cc3ccccc3)s2)s1` [Compound 6]: the IC50 is more than 50 µM.
